In one series the test system is carageenan-induced edema. Briefly: inhibition of carrageenan-induced edema. Conditions: oral. The class given is in vivo, male Wistar rat. The procedure: The inflammation is produced in the male Wistar rat by injection of 0.1 ml of a 0.5% suspension of carageenan in physiological serum, into the muscular fascia of the metatarsal region of the hind foot of the animal. The test substance is administered orally at the same time as the carageenan or 30 or 60 min before carageenan. The edema is measured by plethysmometry three hours after the adminstration of the carrageenan.
A general note: Carrageenan injected into the paw causes an acute inflammation.

The subject of the next series is phenylbenzoquinone (PBQ). Put plainly: analgesic activity, phenylbenzoquinone (PBQ) challenge. The class given is in vivo. Conditions: male Swiss mouse, oral; for ED50: method of Lichfield and Wilcoxon. The method, then:
The analgesic activity was determined in the male Swiss mouse using phenylbenzoquinone (PBQ) as the challenging agent (variation of the method of Siegmund et al, Proc. Soc. Exp. Biol. Med. […], 95, 729-31). […] The ED50 was determined by the method of Lichfield and Wilcoxon.

The next series is described as follows: solubility in water. The class given is physicochemical.
The nature of series [1]: oral toxicity (mortality) in the mouse. Conditions: in vivo, Swiss mice. The procedure: The percentages of mortality produced by the compounds of this invention when administered orally to Swiss mice are shown in Table 1. The animals, free from specific pathogenic organisms were housed in an air conditioned room for 24 to 48 hours before the start of the experiment. They were separated into groups of 5 males and 5 females. The materials were administered to animals which had been fasted for 24 hours by means of a gastric tube in suspension in a 6% thickened julep using a volume equivalent to 0.1 ml per 10 g of body weight. […] They remained under observation for two weeks before being sacrificed and autopsied.

Series [2] deals with carrageenan-induced granulomas. Briefly: activity on carrageenan-induced granulomas. The class given is in vivo, Male Wistar rats. The procedure: Male Wistar rats weighing 130 to 150 grams were given a subcutaneous injection in the central part of the skin of the back of 0.5 ml of an aqueous suspension of carrageenan. Two doses of the test substance are administered, one 30 minutes before and the other 6 hours after carrageenan. At the end of 24 hours the rats were sacrificed and the granulomas were removed and weighed before and after drying for 24 hours at 50° C. The difference in weight of the granulomas wet and dry represents the exudate
These AD50 are respectively 175(142-215) and 175(150-205) mg/kg.

The next series has as its system stomachs. Briefly: ulcerogenic activity. The class given is in vivo, female Wistar rat. The procedure:
The ulcerogenic activity was determined in the female Wistar rat using a variation of the procedure described by J. M. Lwoff, J. Pharmacol. 1971, 3, 1, 81-3. The test substance was administered daily for 3 days to the animals maintained on a aqueous diet. The stomachs were removed after 1, 2, and 3 days of treatment and the ulcerations were classified from 0 to 4. The ulceration index is calculated for each group of animals as the product (average of the classes x the percentage of animals afflicted), while distinguishing acute ulcerations from ulcers which were in the process of healing.

A further series relates to cotton pellet granulomas. Briefly: inhibition of cotton pellet granulomas. The class given is in vivo, male Sprague-Dawley rats. Conditions: oral, daily for 10 days. The method, then: Two cotton pellets weighing 70 mg were implanted under the back skin of male Sprague-Dawley rats anesthetized with ether. Starting the next day, the compound was administered orally daily for 10 days. The rats were sacrificed and the pellets were removed and weighed before and after drying at 50° C. for 24 hours. The weights used were those obtained after deduction of the weight of the implants. The average of the quantities so calculated was determined for each group and compared to the averages of the control group.

For a further series, the system named is blood sugar level. Briefly: antidiabetic activity, blood sugar level in streptozotocin hyperglycemic rats. The class given is in vivo, Female rats. Conditions: oral. More on the design: key: NS: the difference between the blood sugar level in the treated animals and the control animals is not significant; the difference is significant by Student's test at p≤0.05. The procedure:
Female rats weighing 180-200 grams were given an intraperitoneal dose on day J0 of 100 mg/kg of streptozotocin in a 0.05 M citrate buffer at a pH of 4.5 calculated as 0.5 ml per 100 g of body weight. On day J2 hyperglycemic animals were selected by determining the blood sugar level by the orthotoludine method in a stream continuously removed from the retroorbital sinus. […] On day J3, without previous fasting, the selected animals received the treatment. This consisted of oral administration of the test compound in a 6% aqueous suspension of gum arabic at a volume of 0.5 ml per 100 g of body weight.
The animals were sacrificed one, two, or four hours after the treatment and their blood sugar levels were determined. Each group of animals was compared to a control group of animals which received only the suspension of gum arabic. Metformin was the substance chosen as the control.
The results are given in Table 8 which indicates the percentage of decrease in the blood sugar level produced by the treatment.

“And” between values parts separate entries of the source, which are not always exact repeats. Equal values may be shown once.

Consider 5 compounds from patent US4333938A, “Imino derivatives of 5-aminobenzodioxole-1,3 which are useful as medicaments” (Laboratoires Sarget, priority 1979, dated 1982).

In the case of `CC(=O)Oc1ccccc1C(=O)O` [Aspirin, reference compound], the “% inhibiting activity on carrageenan-induced edema” value (shortened to “% inhibiting activity”) with carageenan-induced edema (at To, 75 mg/kg) was found to be 40%; in the series with carageenan-induced edema (at To, 150 mg/kg), 46%; in the series with carageenan-induced edema (at To, 300 mg/kg) it was 68%; in the series with carageenan-induced edema (at To, 450 mg/kg), 64%.

In general, ED50 refers to the midpoint of the dose-response relation. A word on the mortality: it is the percentage killed. On to `C(=Nc1ccc2c(c1)OCO2)c1cccs1` [Example 1, N-thienylidene-5-aminobenzodioxole-1,3], for which the “% analgesic activity” value came out at 34% in the series on phenylbenzoquinone (PBQ) (100 mg/kg), 43% in the series on phenylbenzoquinone (PBQ) (125 mg/kg), 69% with phenylbenzoquinone (PBQ) (150 mg/kg) and 73% in the series on phenylbenzoquinone (PBQ) (200 mg/kg). This compound also displayed an ED50 in the series with phenylbenzoquinone (PBQ) of 130 mg/kg. The solubility in water entry in the series “solubility in water” is reported as “insoluble in water”. Also, the mortality at 336 h in series [1] (1000 mg/kg) is 0%; in series [1] (1500 mg/kg) it was 20%; in series [1] (2000 mg/kg), 60%; in series [1] (3000 mg/kg) it was 70%. Besides, the “% inhibiting activity” value was found to be 19% with carageenan-induced edema (at To (same time as carrageenan), 25 mg/kg); 41% in the series on carageenan-induced edema (at To, 50 mg/kg); 52% in the series on carageenan-induced edema (at To, 100 mg/kg); 56% in the series on carageenan-induced edema (at To, 200 mg/kg); 58% in the series with carageenan-induced edema (at To, 400 mg/kg). For the same compound, in series [2] (200 mg/kg administered twice), the “Exudate, % activity” value stood at 6%. Further, in series [2] (200 mg/kg administered twice), the “Exudate, % animals 30% protected” value was 12.5%. Moreover, the “Weight of dry granuloma, % activity” value in series [2] (200 mg/kg administered twice) turned out to be 1%. Moreover, the “Weight of dry granuloma, % animals 30% protected” value in series [2] (200 mg/kg administered twice) was found to be 12.5%. The “Weight of wet granuloma, % activity” value in series [2] (200 mg/kg administered twice) is recorded as 6%. In addition, the “Weight of wet granuloma, % animals 30% protected” value in series [2] (200 mg/kg administered twice) was 12.5%.

As to `Cc1ccsc1C=Nc1ccc2c(c1)OCO2` [Example 4, N-(3-methyl-2-thienylidene)-5-aminobenzodioxole-1,3], the “% analgesic activity” value in the series with phenylbenzoquinone (PBQ) (75 mg/kg) was 21%; in the series on phenylbenzoquinone (PBQ) (100 mg/kg), 40%; with phenylbenzoquinone (PBQ) (150 mg/kg) it was 37%; with phenylbenzoquinone (PBQ) (200 mg/kg), 62%; with phenylbenzoquinone (PBQ) (300 mg/kg), 67%. Also, the 50% effective dose (ED50) in the series on phenylbenzoquinone (PBQ) is 170 mg/kg. Besides, the solubility in water result in the series “solubility in water” was “insoluble in water”. The mortality at 336 h amounted to 10% in series [1] (750 mg/kg); 10% in series [1] (1000 mg/kg); 60% in series [1] (1500 mg/kg); 20% in series [1] (1750 mg/kg); 20% in series [1] (2000 mg/kg). For the same compound, the “Ulceration Index, acute” value was found to be 0 with stomachs (150 mg/kg daily, Day 1); 0 in the series on stomachs (150 mg/kg daily, Day 2); 72 in the series with stomachs (150 mg/kg daily, Day 3). In addition, the “Ulceration Index, healing” value with stomachs (150 mg/kg daily, Day 1) is listed as 0; in the series on stomachs (150 mg/kg daily, Day 2), 8; with stomachs (150 mg/kg daily, Day 3) it was 16. The “% inhibiting activity” value was 35% in the series on carageenan-induced edema (at To, 75 mg/kg); 35% with carageenan-induced edema (at To, 150 mg/kg); 68% in the series with carageenan-induced edema (at To, 300 mg/kg). Also, the “Exudate, % activity” value in series [2] (100 mg/kg administered twice) is recorded as 21%; in series [2] (200 mg/kg administered twice), 34.5%; in series [2] (300 mg/kg administered twice) it was 44.5%. Also, the results for the “Exudate, % animals 30% protected” value in series [2] (100 mg/kg administered twice), in series [2] (200 mg/kg administered twice) and in series [2] (300 mg/kg administered twice) were 38%, 71% and 75%, respectively. Further, the “Weight of dry granuloma, % activity” value is on record as 16% in series [2] (100 mg/kg administered twice), 31% in series [2] (200 mg/kg administered twice) and 42.5% in series [2] (300 mg/kg administered twice). Further, the results for the “Weight of dry granuloma, % animals 30% protected” value in series [2] (100 mg/kg administered twice), in series [2] (200 mg/kg administered twice) and in series [2] (300 mg/kg administered twice) were 31%, 64% and 67%, respectively. Moreover, the entries for the “Weight of wet granuloma, % activity” value in series [2] (100 mg/kg administered twice), in series [2] (200 mg/kg administered twice) and in series [2] (300 mg/kg administered twice) were 20.5%, 34% and 44.5%, respectively. Also, the “Weight of wet granuloma, % animals 30% protected” value amounted to 38% in series [2] (100 mg/kg administered twice), 71% in series [2] (200 mg/kg administered twice) and 75% in series [2] (300 mg/kg administered twice). The “% inhibition with respect to dry pellets” value with cotton pellet granulomas (dose 150) stood at 10%; with cotton pellet granulomas (dose 300), 19%. Further, the results for the “% inhibition with respect to wet pellets” value in the series on cotton pellet granulomas (dose 150) and in the series on cotton pellet granulomas (dose 300) were 13% and 14%, respectively.

Turning to `CN(C)C(=N)N=C(N)N` [Metformin, reference compound], the “Percentage Decrease in the Blood Sugar” value is reported as “NS” in the series on blood sugar level (200 mg/kg, treatment 1 h before sacrificing); “NS” with blood sugar level (200 mg/kg, treatment 2 h before sacrificing); “NS” in the series with blood sugar level (200 mg/kg, treatment 4 h before sacrificing); 14% in the series with blood sugar level (400 mg/kg, treatment 1 h before sacrificing); “NS” in the series with blood sugar level (400 mg/kg, treatment 2 h before sacrificing); 15% with blood sugar level (400 mg/kg, treatment 4 h before sacrificing).

In the case of `O=C(O)c1cccnc1Nc1cccc(C(F)(F)F)c1` [Niflumic Acid, reference compound], in the series on stomachs (100 mg/kg daily, Day 1), the “Ulceration Index, acute” value was determined as 330 and the “Ulceration Index, healing” value worked out at 0. Also, in the series with stomachs (100 mg/kg daily, Day 2), the “Ulceration Index, acute” value is on record as 1 and the “Ulceration Index, healing” value came to 400. Also, in the series with stomachs (100 mg/kg daily, Day 3), the “Ulceration Index, acute” value is 119 and the “Ulceration Index, healing” value is given as 378. For the same compound, the “% inhibiting activity” value in the series with carageenan-induced edema (at To, 75 mg/kg) is reported as 37%. Also, the “% inhibiting activity” value in the series on carageenan-induced edema (at To, 100 mg/kg) is listed as 27%. Besides, in the series with carageenan-induced edema (at To, 125 mg/kg), the “% inhibiting activity” value was found to be 40%. The “% inhibiting activity” value in the series on carageenan-induced edema (at To, 150 mg/kg) is 37% and 59%. Moreover, in series [2] (25 mg/kg administered twice), the “Exudate, % activity” value is given as 42.5%; the “Exudate, % animals 30% protected” value is listed as 100%; the “Weight of dry granuloma, % activity” value turned out to be 41.5%; the “Weight of dry granuloma, % animals 30% protected” value is on record as 87%. In series [2] (25 mg/kg administered twice), the “Weight of wet granuloma, % activity” value is reported as 42.5% and the “Weight of wet granuloma, % animals 30% protected” value was 100%. In the series on cotton pellet granulomas (dose 50), the “% inhibition with respect to dry pellets” value is 12% and the “% inhibition with respect to wet pellets” value amounted to 3%.
